“Also recorded” adds a separate entry of the source. Where a SMILES comes first, the peptide text is derived from it.

Assay [1] relates to RSV G protein cleavage in Vero cells. The assay is described as follows: Cell-surface RSV G protein cleavage in rgRSV-infected cells treated with protease inhibitors (biotinylation, immunoblot with mAb L9). The assay is classed as cell-based. To be noted: 24 hpi. The protocol: To elucidate the class of protease responsible for G protein cleavage in Vero cells, cells were treated with increasing concentrations of protease inhibitors after inoculating with recombinant green fluorescent protein expressing RSV (rgRSV). Cells were incubated with rgRSV for 2 h with tipping at 37° C. before replacing inoculum with fresh cell culture medium. Drugs were added at different times post infection. In each case, uninfected, no drug, and vehicle (at the highest concentration used) were included in all experiments as controls. In all experiments at 24 hpi, cell surface proteins were biotinylated, cells lysed and equivalent amounts of protein from each sample were mixed with streptavidin beads.
Aprotinin, a serine protease inhibitor, leupeptin, a serine/cysteine protease inhibitor; or E-64, a cysteine protease inhibitor were added to the cell culture media (3.125 to 50 μg/ml) from 2-24 hpi. The most likely proteins to be incorporated into the virions are cell surface proteins, so the cell surfaced was biotinylated, proteins isolated from lysed cells with streptavidin beads, and immunobloted with L9, a mAb to the G protein, as a probe (FIG. 1A). In the untreated and vehicle treated samples most of the cell surface G protein was cleaved (˜55 kDa), leaving only a small portion of full length (˜90 kDa) G protein. […] Since both leupeptin and E64 block the activity of cysteine proteases, the protease responsible for cleavage of the G protein in Vero cells is a cysteine protease.
To narrow the field of cysteine proteases, cells were treated at 6 hpi with a more specific cysteine protease inhibitor, ALLM (0.1 to 100 μM).
RSV-infected HeLa and Vero cells were treated with a cathepsin B inhibitor, CA-074 (0.1 to 100 μM), or a cathepsin L inhibitor, cathepsin L inhibitor III (0.1 to 100 μM) 6 hpi.
Cathepsin L is a protease present primarily in the interior of the lysosome and is optimally active at acidic pH. Vero cells expressing the G protein were treated with chloroquine to raise the pH of the lysosome. […] To generate FIG. 4C, cells were inoculated with RSV or mock inoculated. 6 hpi the cells were treated with increasing concentrations of chloroquine. 24 hpi cells were biotinylated and G protein assayed
HeLa and Vero cells were rgRSV (MOI: 1) or mock inoculated. 2 hpi the inoculum was replaced with fresh complete medium, and 4 hpi cells the medium was changed again to complete medium with 2-fold dilutions of these protease inhibitors (Sigma-Aldrich, St. Louis, Mo.), dissolved in water: Aprotinin (3.125 to 50 μg/ml); Leupeptin (6.25 to 100 μg/ml); E-64 (6.25 to 100 μg/ml); or equal volumes of water in medium. In other experiments, cells were treated at 6 hpi with: 10-fold dilutions (0.1 to 100 μM) of: Cathepsin inhibitor I (Calbiochem); ALLM (Santa Cruz, Dallas, Tex.); Chloroquine diphosphate salt (Sigma Aldrich) or equivalent volumes of vehicle (water); CA-074 (Calbiochem); Cathepsin L inhibitor III (Calbiochem); or an equal volume of vehicle (DMSO) in medium.
At 24 hpi cells were biotinylated with Ez-link Sulfo-NHS-LC-Biotin (Thermo Fisher). Cells were lysed with lysis buffer containing 150 mM NaCl, 1% Triton X-100, 50 mM Tris, 0.1% SDS, and 1× Halt protease cocktail inhibitor (Thermo Fisher). Proteins were quantified using BCA protein assay kit (Pierce, Waltham, Mass.), and equal amounts of protein were added to high capacity streptavidin agarose beads (Thermo Fisher). The mixtures were rotated for 1 h at 4° C., the beads were pelleted and washed with lysis buffer (without protease cocktail inhibitor), NuPage LDS sample buffer was added, and boiled for 5 min, separated by NuPAGE Novex 4-12% bis-tris protein gels and transferred to nitrocellulose in an iBlot transfer stack, using the iBlot transferring system (Life Technologies) for immunoblot analysis. […]
(A western blot detects proteins with antibodies after separation by electrophoresis.)

Assay [2] shares this test system. The assay is described as follows: Cleavage of mutant G proteins transiently expressed in Vero cells (immunoblot). The following applies: for resistance to cleavage of alanine substitution G protein mutants: 24 hours post-transfection; for cleavage of G protein deletion mutants: 24 h post-transfection, vs wt G protein. The assay is classed as cell-based. The protocol:
The G gene in the region of amino acid 210 was modified by deleting stretches of amino acids in this region (200-211, 204-213, 206-215, 208-217, or 209-213). […] Most of the mutants almost completely ablate cleavage. They all share amino acids 208-211. However, A206-210 and A206-215, both of which bring together amino acids that can also serve as a cathepsin L cleavage site. For FIG. 6B, the mutated G protein genes were transiently expressed in Vero cells. 24 h post-transfection cells were harvested, lysed and proteins were separated by SDS-PAGE, blotted and probed with mAb to the G protein.
To identify which amino acids are important for cleavage, individual amino acids in and around this region were changed to alanine. These mutant G proteins were transiently expressed in Vero cells and assessed by immunoblot (FIG. 6C). For FIG. 6C, the mutated G protein genes were transiently expressed in Vero cells. 24 hours post-transfection cells were harvested, lysed and proteins were separated by SDS-PAGE, blotted and probed with mAb to the G protein.
The strain A2 G protein plasmid was mutagenized using synthetic double strand gBlock DNA (Integrated DNA Technologies). Van91I (Thermo Fisher) and Xho I (New England Biolabs) were used to digest plasmid and gBlock. Doubly-digested plasmid was isolated by agarose gel electrophoresis. Digested gBlock and eluted plasmid DNAs were ligated with T4 DNA ligase (Promega, Madison, Wis.), and transformed into One Shot MachI-T1 chemically competent bacteria (Life Technologies). Plasmids were extracted using HiSpeed or Plasmid Plus Maxi kits (Qiagen).
Wild type G or frG proteins were expressed in HeLa or Vero cells following plasmid transfection with FuGene HD (Promega) or Lipofectamine LTX (Life Technologies), respectively, in medium containing 2% FBS. In frG experiments, medium was collected and concentrated using Ultracel-10 K centrifugal filters (EMD Millipore, Billerica, Mass.). For other transfection experiments, Vero cells were transfected using Lipofectamine 3000 (Life Technologies) in medium containing 10% FBS. For all transfection experiments, cells were lysed and protein quantified by BCA assay. Equivalent HeLa or Vero cell lysate protein and equivalent volumes of concentrated proteins from the medium were analyzed by immunoblotting.

The mark [3] stands for this setting: rgRSV-infected Vero cells, 6.24 to 100 μg/ml.

As to `CCCNC(=O)[C@H]1O[C@@H]1C(=O)N[C@H](C(=O)N1CCC[C@H]1C(=O)O)[C@@H](C)CC` [CA-074], in assay [1] (RSV-infected HeLa and Vero cells, 0.1 to 100 μM at 6 hpi), the “G protein cleavage (cell surface G protein)” value (“G protein cleavage” for short) is given as “RSV G protein cleavage in the presence; also recorded: did not change this pattern”.
For `CC(=O)N[C@@H](CC(C)C)C(=O)N[C@@H](CC(C)C)C(=O)N[C@H](C=O)CCCNC(=N)N` [leupeptin], the “G protein cleavage” value is on record as “did, in a dose dependent manner” in assay [1] (setting [3]) and “prevention of cleavage” in assay [1] (rgRSV-infected Vero cells, 6.24 to 100 μg/ml, listed as Leupeptin).
As for “K209: RSV strain A2 G protein with alanine substitution at K209”, in assay [2], the “efficiency at inhibiting cleavage (rank among alanine substitutions)” value is “second most efficient” and the “resistance to cleavage of alanine substitution G protein mutants” value is given as “partially to nearly completely resistant to cleavage”.
`CC(C)C[C@H](NC(=O)[C@H]1O[C@@H]1C(=O)O)C(=O)NCCCCN=C(N)N` [E64, E-64]: the “G protein cleavage” value was “did, in a dose dependent manner” in assay [1] (setting [3]) and “prevention of cleavage” in assay [1] (rgRSV-infected Vero cells, 6.24 to 100 μg/ml, listed as E-64).
Take “206-215: RSV G protein with amino acids 206-215 deleted”: the “cleavage of G protein deletion mutants” value in assay [2] was “cleaved less efficiently than the wt G protein”; in assay [2] (listed as Δ206-215) it was “inhibit but do not abolished protein cleavage”.
On to `CCN(CC)CCCC(C)Nc1ccnc2cc(Cl)ccc12` (stereo not drawn) [chloroquine], for which the “G protein on the cell surface (cleaved vs full length)” value in assay [1] (Vero cells, increasing concentrations of chloroquine from 6 hpi) is reported as “primarily full length G protein; also recorded: decreased cleavage”.
Take `CSCC[C@@H](C=O)NC(=O)[C@H](CC(C)C)NC(=O)[C@H](CC(C)C)NC(C)=O` [ALLM] (Ac-Leu-Leu-Met-aldehyde): in assay [1] (rgRSV-infected Vero cells, treated at 6 hpi, 0.1 to 100 μM), the “G protein cleavage” value is “prevention of cleavage; also recorded: inhibited G protein cleavage”.
With “K212: RSV strain A2 G protein with alanine substitution at K212”, the “resistance to cleavage of alanine substitution G protein mutants” value in assay [2] is listed as “partially to nearly completely resistant to cleavage”.
On the same count and under the same terms, next, “D214: RSV strain A2 G protein with alanine substitution at D214”: “partially to nearly completely resistant to cleavage”.
In the case of Δ206-210, the “cleavage of G protein deletion mutants” value in assay [2] was “inhibit but do not abolished protein cleavage”.
As for Aprotinin, in assay [1] (rgRSV-infected Vero cells, 3.125 to 50 μg/ml), the “G protein cleavage” value is listed as “did not prevent G protein cleavage”.
